PubChem BioAssay AID1259407 (Chemical Carcinogenesis Research Information System (CCRIS), 2018)
Calls of active or inactive are those of the source. How the calls were made is not given here.

System: CCRIS mutagenicity, Ames/micronucleus/aberration tests
Test: CCRIS mutagenicity studies
[1] = Test System: AMES SALMONELLA TYPHIMURIUM, Strain/Indicator: TA1535, Metabolic Activation: NONE, Method: PREINCUBATION

Question: What does the source list for `CN(N=O)C(N)=O`?
Answer: mutagenic call (End Point: IN VITRO CHROMOSOMAL ABERRATIONS, Test System: CHINESE HAMSTER V79-E CELLS, Metabolic Activation: NONE): active; positive; mutagenic call (End Point: IN VITRO CHROMOSOMAL ABERRATIONS, Test System: V79 CELLS (V79-C10), Metabolic Activation: NONE): active; positive; mutagenic call (End Point: IN VITRO MICRONUCLEUS, Test System: CHINESE HAMSTER V79 CELLS, Metabolic Activation: NONE): active; positive at the cytotoxic dose of 0.8 mm; mutagenic call (End Point: IN VITRO MICRONUCLEUS, Test System: MOUSE LYMPHOMA L5178Y CELLS, Metabolic Activation: NONE): active; positive; mutagenic call (End Point: Mutagenicity, Test System: Spleen: t-lymphocytes/hprt mutants, Species: Rat, Strain/Sex: Wistar/male, Route: Intraperitoneal): active; positive; mutation induction dramatically lower following subchronic treatment;; mutagenic call (Test System: AMES SALMONELLA TYPHIMURIUM, Strain/Indicator: G46, Metabolic Activation: NONE, Method: STANDARD PLATE): active; positive; mutagenic call (Test System: AMES SALMONELLA TYPHIMURIUM, Strain/Indicator: TA100, Metabolic Activation: NONE, Method: LIQUID INCUBATION): active; positive; mutagenic call (Test System: AMES SALMONELLA TYPHIMURIUM, Strain/Indicator: TA100, Metabolic Activation: NONE, Method: STANDARD PLATE): active; positive; mutagenic call (Test System: AMES SALMONELLA TYPHIMURIUM, Strain/Indicator: TA100, Metabolic Activation: RAT, LIVER, S-9, AROCLOR 1254, Method: PREINCUBATION): active; positive; mutagenic call (Test System: AMES SALMONELLA TYPHIMURIUM, Strain/Indicator: TA100, Metabolic Activation: RAT, LIVER, S-9, KC500 OR PHENOBARBITAL, Method: LIQUID SUSPENSION): active; positive; mutagenic call (Test System: AMES SALMONELLA TYPHIMURIUM, Strain/Indicator: TA100, Metabolic Activation: RAT, LIVER, S-9, PHENOBARBITAL, Method: STANDARD PLATE): active; positive; mutagenic call (Test System: AMES SALMONELLA TYPHIMURIUM, Strain/Indicator: TA102, Metabolic Activation: RAT, LIVER, S-9, AROCLOR 1254, Method: PREINCUBATION): active; positive; mutagenic call (Test System: AMES SALMONELLA TYPHIMURIUM, Strain/Indicator: TA104, Metabolic Activation: NONE, Method: PREINCUBATION): active; positive; mutagenic call (Test System: AMES SALMONELLA TYPHIMURIUM, Strain/Indicator: TA104, Metabolic Activation: RAT, LIVER, S-9, AROCLOR 1254, Method: PREINCUBATION): active; positive; mutagenic call (Test System: AMES SALMONELLA TYPHIMURIUM, Strain/Indicator: TA1530, Metabolic Activation: NONE, Method: PREINCUBATION): active; positive; mutagenic call (Test System: AMES SALMONELLA TYPHIMURIUM, Strain/Indicator: TA1530, Metabolic Activation: NONE, Method: STANDARD PLATE): active; positive; mutagenic call (Test System: AMES SALMONELLA TYPHIMURIUM, Strain/Indicator: TA1535, Metabolic Activation: NONE, Method: LIQUID INCUBATION): active; positive; mutagenic call [1]: active; positive; mutagenic call (Test System: AMES SALMONELLA TYPHIMURIUM, Strain/Indicator: TA1535, Metabolic Activation: NONE, Method: STANDARD PLATE): active; positive; mutagenic call (Test System: AMES SALMONELLA TYPHIMURIUM, Strain/Indicator: TA1535, Metabolic Activation: RAT, LIVER, S-9, PCB OR PHENOBARBITAL, Method: STANDARD PLATE): active; positive; mutagenic call (Test System: AMES SALMONELLA TYPHIMURIUM, Strain/Indicator: YG7100, Metabolic Activation: NONE, Method: PREINCUBATION): active; positive; mutagenic call (Test System: AMES SALMONELLA TYPHIMURIUM, Strain/Indicator: YG7104, Metabolic Activation: NONE, Method: PREINCUBATION): active; positive; mutagenic call (Test System: AMES SALMONELLA TYPHIMURIUM, Strain/Indicator: YG7108, Metabolic Activation: NONE, Method: PREINCUBATION): active; positive; mutagenic call (Test System: AMES SALMONELLA TYPHIMURIUM, Strain/Indicator: YG7112, Metabolic Activation: NONE, Method: PREINCUBATION): active; positive; mutagenic call (Test System: AMES SALMONELLA TYPHIMURIUM, Strain/Indicator: YG7113, Metabolic Activation: NONE, Method: PREINCUBATION): active; positive; mutagenic call (Test System: AMES SALMONELLA TYPHIMURIUM, Strain/Indicator: YG7119, Metabolic Activation: NONE, Method: PREINCUBATION): active; positive; mutagenic call (Test System: CHINESE HAMSTER OVARY, Strain/Indicator: CHO-K1-BH4 (HGPRT), Metabolic Activation: NONE, Method: SUSPENSION/PLATE): active; positive; mutagenic call (Test System: CHINESE HAMSTER V-79, Strain/Indicator: V-79/6-THIOGUANINE, Metabolic Activation: NONE, Method: FLASK ASSAY): active; positive; mutagenic call (Test System: CHINESE HAMSTER V-79, Strain/Indicator: V-79/6-THIOGUANINE, Metabolic Activation: NONE, Method: STANDARD PLATE): active; positive; mutagenic call (Test System: CHINESE HAMSTER V-79, Strain/Indicator: V-79/8-AZAGUANINE, Metabolic Activation: NONE, Method: STANDARD PLATE): active; positive; mutagenic call (Test System: CHINESE HAMSTER V-79, Strain/Indicator: V-79/OUABAIN, Metabolic Activation: NONE): active; positive; mutagenic call (Test System: CHO/HGPRT, Strain/Indicator: CHO-K1-BH4, Metabolic Activation: NONE): active; positive; mutagenic call (Test System: CHO/HGPRT, Strain/Indicator: CHO-K1-BH4, Metabolic Activation: NONE, Method: STANDARD PLATE): active; positive; mutagenic call (Test System: E. COLI, Strain/Indicator: H/R30R, Metabolic Activation: NONE): active; positive; mutagenic call (Test System: E. COLI, Strain/Indicator: H/R30R, Metabolic Activation: NONE, Method: PREINCUBATION): active; positive; mutagenic call (Test System: E. COLI, Strain/Indicator: HS30R UVRA, Metabolic Activation: NONE, Method: PREINCUBATION): active; positive; mutagenic call (Test System: E. COLI, Strain/Indicator: HS30R, Metabolic Activation: NONE): active; positive; mutagenic call (Test System: E. COLI, Strain/Indicator: NG30 RECA, Metabolic Activation: NONE, Method: PREINCUBATION): active; positive; mutagenic call (Test System: E. COLI, Strain/Indicator: O16 POLA, Metabolic Activation: NONE, Method: PREINCUBATION): active; positive; mutagenic call (Test System: E. COLI, Strain/Indicator: WP2, Metabolic Activation: NONE, Method: FLUCTUATION): active; positive; mutagenic call (Test System: E. COLI, Strain/Indicator: WP2, Metabolic Activation: NONE, Method: STANDARD PLATE): active; positive; mutagenic call (Test System: E. COLI, Strain/Indicator: WP2 UVRA, Metabolic Activation: NONE, Method: FLUCTUATION): active; positive; mutagenic call (Test System: E. COLI, Strain/Indicator: WP2 UVRA, Metabolic Activation: NONE, Method: STANDARD PLATE): active; positive; mutagenic call (Test System: LacZ transgenic mouse (Muta Mouse), Strain/Indicator: LacZ Mutant frequency, Method: Liver and kidney harvested 37 days after last dose): active; positive in kidney. no increase in mutation frequency in liver.; mutagenic call (Test System: UDS HUMAN CELLS, Strain/Indicator: THY INCORP (NON-S-PHASE), Metabolic Activation: NONE, Method: LIQUID SCINTILLATION COUNTING): active; positive; mutagenic call (Test System: UDS HUMAN FIBROBLASTS, Strain/Indicator: THY INCORP (NON-S-PHASE), Metabolic Activation: NONE, Method: AUTORADIOGRAPHY): active; positive; mutagenic call (Test System: UDS MOUSE SPERMATOGONIAL AND POSTSPERMATOGONIAL CELLS IN VIVO, Strain/Indicator: THYMIDINE INCORPORATION, Metabolic Activation: NONE, Method: AUTORADIOGRAPHY): active; positive; mutagenic call (Test System: UDS RODENT CELLS, Strain/Indicator: THY INCORP (NON-S-PHASE), Metabolic Activation: NONE, Method: LIQUID SCINTILLATION COUNTING): active; positive

Question: Which mutagenic call (End Point: CHROMOSOMAL ABERRATIONS, Test System: CHINESE HAMSTER LUNG CELLS, Metabolic Activation: NONE) does the source give for `Oc1ccc(/C=C/c2cc(O)cc(O)c2)cc1` here?
Answer: active; positive (structural and ploidy changes)

Question: And the mutagenic call (Test System: Ames Salmonella typhimurium, Strain/Indicator: TA102, Metabolic Activation: None, Method: Preincubation)?
Answer: inactive; negative

Question: What about the mutagenic call (Test System: Ames Salmonella typhimurium, Strain/Indicator: TA102, Metabolic Activation: Rat, Liver, S-9, Aroclor 1254 in 0.154 M KCl, Method: Preincubation) of the same compound?
Answer: inactive; negative

Question: For `C[n+]1c2ccccc2c(N)c2ccccc21`, which mutagenic call [1] is on record?
Answer: active; positive

Question: And the mutagenic call (Test System: AMES SALMONELLA TYPHIMURIUM, Strain/Indicator: TA1535, Metabolic Activation: RAT, LIVER, S-9, TETRACHLOROBIPHENYL, Method: PREINCUBATION)?
Answer: active; positive

Question: What about the mutagenic call (Test System: AMES SALMONELLA TYPHIMURIUM, Strain/Indicator: TA1537, Metabolic Activation: NONE, Method: PREINCUBATION) of the same compound?
Answer: active; positive

Question: And the mutagenic call (Test System: AMES SALMONELLA TYPHIMURIUM, Strain/Indicator: TA1537, Metabolic Activation: RAT, LIVER, S-9, TETRACHLOROBIPHENYL, Method: PREINCUBATION)?
Answer: active; positive

Question: What about the mutagenic call (Test System: AMES SALMONELLA TYPHIMURIUM, Strain/Indicator: TA1538, Metabolic Activation: NONE, Method: PREINCUBATION) of the same compound?
Answer: inactive; negative

Question: What about the mutagenic call (Test System: AMES SALMONELLA TYPHIMURIUM, Strain/Indicator: TA1538, Metabolic Activation: RAT, LIVER, S-9, TETRACHLOROBIPHENYL, Method: PREINCUBATION) of the same compound?
Answer: inactive; negative

Question: And the mutagenic call (Test System: AMES SALMONELLA TYPHIMURIUM, Strain/Indicator: TA1977, Metabolic Activation: NONE, Method: PREINCUBATION)?
Answer: active; positive

Question: And the mutagenic call (Test System: AMES SALMONELLA TYPHIMURIUM, Strain/Indicator: TA1977, Metabolic Activation: RAT, LIVER, S-9, TETRACHLOROBIPHENYL, Method: PREINCUBATION)?
Answer: active; positive
